{"source": "patent US7968588B2", "about": "“Injectable formulation of antibiotic and solution for intravenous administration thereof” (eRigen Pharmaceuticals, Inc., priority 2006, dated 2011)", "test_system": "MRSA (strain ATCC 33591)", "test": "In vivo efficacy study in a MRSA infection model in mice", "set-up": "species or system Staphylococcus aureus", "conditions": "for survival (%) at dosage 1.0 mg/kg: single i.v. dose 1.0 mg/kg one hour after i.v. MRSA inoculation; for survival (%) at dosage 3.0 mg/kg: single i.v. dose 3.0 mg/kg one hour after i.v. MRSA inoculation; for 50% effective dose: single i.v. dose, calculated from the survival rate at each dosage", "method": "Efficacy was compared between the present solution of WAP-8294A2 prepared in the manner shown in Example 4 and vancomycin for injection (5% dextrose solution) using an MRSA infection model in mice.\nThe 50% effective dose (mg/kg) was calculated from the survival rate at each dosage.", "note": "Starred links: 1 amine or outer side, 2 acyl side, 3 side chain; linkers in the order of their positions; H or OH if unused. Positions of bridges follow the written chain, without caps; N, C: chain ends. Non-standard residues stand in square brackets, D forms with d. Residues, ends and D or L forms follow the SMILES beside them. ξ: configuration not given here. ξAsn(3ξ-OH) = NC(=O)C(O)C(N)C(=O)O; X1 = CC(C)CCCC(CC(=O)[*:1])O[*:2]; NMeF = CN[CH](Cc1ccccc1)C(=O)O; NMeV = CN[CH](C(=O)O)C(C)C; Orn = NCCC[CH](N)C(=O)O"}
{"compound": "CN[C@H](CC(C)C)C(=O)N[C@H]1C(=O)N[C@@H](CC(N)=O)C(=O)N[C@H]2C(=O)N[C@H]3C(=O)N[C@H](C(=O)N[C@H](C(=O)O)c4cc(O)cc(O)c4-c4cc3ccc4O)[C@H](O)c3ccc(c(Cl)c3)Oc3cc2cc(c3O[C@@H]2O[C@H](CO)[C@@H](O)[C@H](O)[C@H]2O[C@H]2C[C@](C)(N)[C@H](O)[C@H](C)O2)Oc2ccc(cc2Cl)[C@H]1O", "note": "[vancomycin, reference compound]", "values": [{"measurement": "survival (%) at dosage 1.0 mg/kg", "setting": "observed for a week", "result": 0, "unit": "%"}, {"measurement": "survival (%) at dosage 3.0 mg/kg", "setting": "observed for a week", "result": 30, "unit": "%"}, {"measurement": "survival (%) at dosage 10 mg/kg", "setting": "single i.v. dose 10 mg/kg one hour after i.v. MRSA inoculation, observed for a week", "result": 100, "unit": "%"}, {"measurement": "50% effective dose", "result": 3.12, "unit": "mg/kg"}]}
{"compound": "CC(C)CCCC1CC(=O)NC(CO)C(=O)NC(C(O)C(N)=O)C(=O)NC(CO)C(=O)NCC(=O)N(C)C(Cc2ccccc2)C(=O)NC(CC(C)C)C(=O)NC(CCCN)C(=O)NC(CCC(=O)O)C(=O)NC(CC(N)=O)C(=O)NC(Cc2c[nH]c3ccccc23)C(=O)NC(CCCN)C(=O)N(C)C(C(C)C)C(=O)O1", "note": "(centres unmarked) [WAP-8294A2] (S[ξAsn(3ξ-OH)]SG[NMeF]L[Orn]ENW[Orn][NMeV]; linker N-C via X1; configuration not given here)", "values": [{"measurement": "survival (%) at dosage 0.01 mg/kg", "setting": "single i.v. dose 0.01 mg/kg one hour after i.v. MRSA inoculation, observed for a week", "result": 10, "unit": "%"}, {"measurement": "survival (%) at dosage 0.03 mg/kg", "setting": "single i.v. dose 0.03 mg/kg one hour after i.v. MRSA inoculation, observed for a week", "result": 30, "unit": "%"}, {"measurement": "survival (%) at dosage 0.1 mg/kg", "setting": "single i.v. dose 0.1 mg/kg one hour after i.v. MRSA inoculation, observed for a week", "result": 60, "unit": "%"}, {"measurement": "survival (%) at dosage 0.3 mg/kg", "setting": "single i.v. dose 0.3 mg/kg one hour after i.v. MRSA inoculation, observed for a week", "result": 100, "unit": "%"}, {"measurement": "survival (%) at dosage 1.0 mg/kg", "setting": "observed for a week", "result": 100, "unit": "%"}, {"measurement": "survival (%) at dosage 3.0 mg/kg", "setting": "observed for a week", "result": 100, "unit": "%"}, {"measurement": "50% effective dose", "result": 0.06, "unit": "mg/kg"}]}
